Our source for the IC50 values is patent US20230024521A1, “JAK INHIBITORS” (Vimalan Biosciences, Inc., priority 2019, published 2023).

In experiment [1] the test system is JAK2: GM-CSF stimulated STAT5 phosphorylation. Description: Co-stimulation assay in lysed whole blood; JAK2: GM-CSF stimulated STAT5 phosphorylation. It counts as cell-based, human. As to conditions: Homo sapiens, read-out: GMCSF/J2/pS5: GeoMean (nM). As to the method:
Example C: Co-Stimulation Assay in Lysed Whole Blood; JAK2: GM-CSF Stimulated STAT5 Phosphorylation and JAK1/TYK2 Stimulated STAT1 Phosphorylation Assay
Human Blood Lysis using abcam's RBC lysis buffer
Dilute RBC lysis buffer to 1× in distilled water. Add 2 mL blood to 38 mL of 1×RBC-lysis buffer. Incubate for 15 mins at RT, in dark. Spin at 300 g, 5 mins, to collect the pellet. Re-lyse if necessary. Re-suspend pellet in 5 mL of cRPMI.
Aliquot 80 μL of lysed human blood in to wells of 96 deep-well plate. Add 10 μl of (10× conc.) of different concentrations of compounds to all wells except controls (unstained and unstimulated) and mix it with the help of 100 uL multichannel Add 10 uL of RPMI media in controls. For dilution of compounds and dilution range please refer Appendix. Incubate on water bath or CO2 incubator for 1 hour at 37° C. Add 10 μl of (10× conc.) of cytokine mix (GM-CSF and IFNa) (final conc. 10 ng/mL of GM-CSF and 100 ng/mL of IFNa) to each well except unstimulated and unstained controls and incubate further for 20 minutes on water bath at 37° C.
Add 900 μL of prewarmed 1× Fix/Lyse solution (Appendix) and mix it properly using 1000 μl multichannel, incubate further on water bath at 37° C. for 10 minutes (which includes time of addition). Centrifuge at 800×g for 5 minutes at 40° C.; remove 900 uL of supernatant and add 900 μL of 1×PBS. Centrifuge at 800×g for 5 minutes at 40° C., remove 900 μL of supernatant. Wash one more time with 900 μL of PBS (optional) and resuspend pellets in 100 uL of PBS.
Disrupt the pellet by gentle tapping and resuspend in 1000 μL of BD Phosflow Perm Buffer III and incubate plate on ice for 30 minutes. Centrifuge plate at 800×g for 5 minutes at 40° C. Wash two more times with 1000 μL of BD Pharmingen Stain Buffer.
Disrupt the pellet by gentle tapping. Resuspend pellets in 100 uL of Stain Buffer and add 5 μL of pSTAT5_AF488 Ab and 5 uL of pSTAT1_PE in all wells except unstained control and mix properly using 200 μl multichannel, incubate overnight at […]. Add 900 μL of wash buffer and centrifuge at 1800 rpm for 3 minutes at […]. Wash one more time with 1000 μL of BD Pharmingen Stain Buffer. Finally resuspend the pellet in 300 uL of BD Pharmingen Stain Buffer. Transfer the cells to 96-well v-bottom plate and acquire the cells in Beckman Coulter CytExpert. Acquiring cells in Flow Cytometer: Keep the threshold value to 250 and cell concentration should not exceed 100-500 cells/4. Acquire at least 5,000-10,000 cells.
RPMI 1640 Complete Medium: RPMI 1640 media+10% FBS.
Cytokine dilution: 1) GM-CSF Stock at 100 ug/mL. Prepare an intermediate dilution of 1 ug/mL by adding 2 uL of stock into 198 uL of cRPMI. Further dilute to 100 ng/mL by adding 100 uL of the intermediate stock to 900 uL of cRPMI. 2) IFNa Stock at 200 ug/mL. Dilute IFNa stock 1:200 by adding 5 uL of stock into the 1000 uL of 100 ng/mL GM-CSF working stock as above to give a combined working stock of 1000 ng/mL of IFNa and 100 ng/mL GM-CSF (10×). Keep it on ice until used.
Lyse/Fix buffer preparation: Dilute 5× Lyse/Fix buffer to 1× using MQ water and keep at 37° C. until used.
BD Phosflow perm buffer III: Keep on ice/fridge

Another experiment concerns the target JAK1 (Homo sapiens, UniProt P23458). Description: JAK/TYK2 assay (Kinase Glo luminescence): Jak1 kinase assay. The class given is biochemical. As to conditions: 7.5 nM enzyme, 2 uM ATP, 30 uM IRS-1, 1 hr. As to the method: (§1) Example A: JAK/TYK2 Assay 10 mM test compound stock or 1 mM control compound stock (tofocitinib, ruxolitinib or staurosporine) in DMSO was diluted to 0.4 mM in DMSO. A 3-fold series dilution was then performed in DMSO to generate 10 different compound concentrations. The assay was carried out in 384-well white plate. 0.5 μL of 40× compound DMSO solution at different concentrations was mixed with 10 uL 2× enzyme prepared in reaction buffer (20 mM HEPES, 10 mM MgCl2, 0.01% Tween, 1 mM DTT, pH 7.5). 10 uL 2× substrate mixture prepared in reaction buffer was then added to start the reaction. A short spin was done to settle down all solutions to the bottom of the plate. Final concentrations of test compound in the reaction mixture were 10000, 3333, 1111, 370, 123, 41.2, 13.7, 4.57, 1.52 and 0.51 nM, Concentrations of control compound were ten times less. Enzymatic reaction was conducted at 25° C. for 1-2 hours. 10 uL of Kinase Glo Reagents was added to stop the reaction and generate the luminescent signal which was measured using Envision. Luminescence signal was inversely related to kinase activity. […] The mixture without any compound was the positive control. [table]
Background: Kinase-Glo measures the ATP left after a reaction by luminescence.

The target in a further experiment is T1, JAK3 (Homo sapiens, UniProt P52333).
T1 sequence (P52333 1-1124): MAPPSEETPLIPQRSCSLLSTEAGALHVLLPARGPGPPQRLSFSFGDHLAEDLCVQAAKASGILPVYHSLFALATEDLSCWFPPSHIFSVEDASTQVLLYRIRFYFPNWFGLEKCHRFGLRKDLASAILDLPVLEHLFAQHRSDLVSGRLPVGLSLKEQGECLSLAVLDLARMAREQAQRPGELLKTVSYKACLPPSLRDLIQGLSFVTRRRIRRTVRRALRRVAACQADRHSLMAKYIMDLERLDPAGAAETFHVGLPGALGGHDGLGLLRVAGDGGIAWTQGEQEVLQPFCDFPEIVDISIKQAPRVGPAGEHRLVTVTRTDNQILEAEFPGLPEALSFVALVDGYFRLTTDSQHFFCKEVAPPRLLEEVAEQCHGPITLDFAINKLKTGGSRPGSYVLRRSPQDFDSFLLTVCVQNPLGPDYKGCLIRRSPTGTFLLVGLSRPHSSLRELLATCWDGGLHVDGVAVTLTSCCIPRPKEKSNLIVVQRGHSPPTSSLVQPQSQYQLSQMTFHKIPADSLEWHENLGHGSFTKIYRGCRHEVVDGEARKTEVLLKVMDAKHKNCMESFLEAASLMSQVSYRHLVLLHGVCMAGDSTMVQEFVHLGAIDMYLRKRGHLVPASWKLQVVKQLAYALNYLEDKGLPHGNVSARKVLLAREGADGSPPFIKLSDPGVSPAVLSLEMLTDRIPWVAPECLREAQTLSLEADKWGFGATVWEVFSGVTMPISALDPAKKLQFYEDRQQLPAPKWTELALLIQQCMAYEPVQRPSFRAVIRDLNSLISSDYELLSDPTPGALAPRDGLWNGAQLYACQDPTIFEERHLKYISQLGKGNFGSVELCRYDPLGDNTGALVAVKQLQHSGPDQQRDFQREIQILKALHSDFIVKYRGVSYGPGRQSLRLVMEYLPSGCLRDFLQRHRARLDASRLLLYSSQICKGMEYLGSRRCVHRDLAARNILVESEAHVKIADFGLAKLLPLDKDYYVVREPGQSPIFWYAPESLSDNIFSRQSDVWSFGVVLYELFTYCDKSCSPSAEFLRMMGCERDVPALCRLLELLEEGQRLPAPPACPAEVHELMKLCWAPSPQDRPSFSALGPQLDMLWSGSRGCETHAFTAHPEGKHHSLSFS
The experiment in a line: JAK/TYK2 assay (Kinase Glo luminescence): Jak3 kinase assay. It counts as biochemical. As to conditions: 1.5 nM enzyme, 2 uM ATP, 4 uM pEY, 1 hr; read-out: Jak3 kinase assay: IC50 Geomean. Here is the method: as §1

In a further experiment the target is JAK2 (Homo sapiens, UniProt O60674). Description: JAK/TYK2 assay (Kinase Glo luminescence): Jak2 kinase assay. As to conditions: 0.8 nM enzyme, 2 uM ATP, 4 uM pEY, 1 hr; read-out: Jak2 kinase assay: IC50 Geomean. The class given is biochemical. Here is the method: as §1
For another experiment, the target named is TYK2 (Homo sapiens, UniProt P29597). Description: JAK/TYK2 assay (Kinase Glo luminescence): Tyk2 kinase assay. It counts as biochemical. As to conditions: 9 nM enzyme, 2 uM ATP, 30 uM IRS-1, 1 hr; read-out: Tyk2 kinase assay: IC50 Geomean. Here is the method:
as §1

Sequence of JAK2 (O60674 whole entry, species assumed): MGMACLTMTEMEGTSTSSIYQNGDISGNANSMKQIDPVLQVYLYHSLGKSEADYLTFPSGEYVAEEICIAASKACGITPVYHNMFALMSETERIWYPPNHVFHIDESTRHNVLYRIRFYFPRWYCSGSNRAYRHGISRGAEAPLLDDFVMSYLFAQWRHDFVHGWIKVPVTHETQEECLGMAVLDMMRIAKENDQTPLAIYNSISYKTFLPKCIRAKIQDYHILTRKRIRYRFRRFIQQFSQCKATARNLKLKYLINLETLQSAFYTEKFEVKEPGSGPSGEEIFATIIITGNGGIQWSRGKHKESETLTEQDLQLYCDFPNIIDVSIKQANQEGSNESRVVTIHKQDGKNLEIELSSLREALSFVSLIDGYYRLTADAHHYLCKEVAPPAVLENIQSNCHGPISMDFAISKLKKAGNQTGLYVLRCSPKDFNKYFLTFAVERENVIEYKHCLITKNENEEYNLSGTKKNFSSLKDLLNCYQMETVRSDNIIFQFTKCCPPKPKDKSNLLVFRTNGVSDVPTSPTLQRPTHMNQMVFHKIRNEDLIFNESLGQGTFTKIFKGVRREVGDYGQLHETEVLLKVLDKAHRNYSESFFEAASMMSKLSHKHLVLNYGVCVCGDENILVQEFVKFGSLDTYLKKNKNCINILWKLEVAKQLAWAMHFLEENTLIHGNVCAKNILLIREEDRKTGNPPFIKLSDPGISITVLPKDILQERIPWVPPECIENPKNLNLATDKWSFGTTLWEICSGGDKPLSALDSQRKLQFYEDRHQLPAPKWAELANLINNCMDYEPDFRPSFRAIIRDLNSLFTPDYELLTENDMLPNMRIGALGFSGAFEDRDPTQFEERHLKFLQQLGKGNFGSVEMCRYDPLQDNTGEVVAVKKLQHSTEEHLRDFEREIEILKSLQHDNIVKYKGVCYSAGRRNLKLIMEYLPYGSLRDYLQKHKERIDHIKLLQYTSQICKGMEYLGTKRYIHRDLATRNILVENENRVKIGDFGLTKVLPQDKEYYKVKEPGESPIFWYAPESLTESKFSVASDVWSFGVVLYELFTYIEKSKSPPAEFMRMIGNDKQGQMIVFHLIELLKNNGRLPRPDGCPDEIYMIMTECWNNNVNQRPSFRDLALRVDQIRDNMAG
Sequence of JAK1 (P23458 whole entry, species assumed): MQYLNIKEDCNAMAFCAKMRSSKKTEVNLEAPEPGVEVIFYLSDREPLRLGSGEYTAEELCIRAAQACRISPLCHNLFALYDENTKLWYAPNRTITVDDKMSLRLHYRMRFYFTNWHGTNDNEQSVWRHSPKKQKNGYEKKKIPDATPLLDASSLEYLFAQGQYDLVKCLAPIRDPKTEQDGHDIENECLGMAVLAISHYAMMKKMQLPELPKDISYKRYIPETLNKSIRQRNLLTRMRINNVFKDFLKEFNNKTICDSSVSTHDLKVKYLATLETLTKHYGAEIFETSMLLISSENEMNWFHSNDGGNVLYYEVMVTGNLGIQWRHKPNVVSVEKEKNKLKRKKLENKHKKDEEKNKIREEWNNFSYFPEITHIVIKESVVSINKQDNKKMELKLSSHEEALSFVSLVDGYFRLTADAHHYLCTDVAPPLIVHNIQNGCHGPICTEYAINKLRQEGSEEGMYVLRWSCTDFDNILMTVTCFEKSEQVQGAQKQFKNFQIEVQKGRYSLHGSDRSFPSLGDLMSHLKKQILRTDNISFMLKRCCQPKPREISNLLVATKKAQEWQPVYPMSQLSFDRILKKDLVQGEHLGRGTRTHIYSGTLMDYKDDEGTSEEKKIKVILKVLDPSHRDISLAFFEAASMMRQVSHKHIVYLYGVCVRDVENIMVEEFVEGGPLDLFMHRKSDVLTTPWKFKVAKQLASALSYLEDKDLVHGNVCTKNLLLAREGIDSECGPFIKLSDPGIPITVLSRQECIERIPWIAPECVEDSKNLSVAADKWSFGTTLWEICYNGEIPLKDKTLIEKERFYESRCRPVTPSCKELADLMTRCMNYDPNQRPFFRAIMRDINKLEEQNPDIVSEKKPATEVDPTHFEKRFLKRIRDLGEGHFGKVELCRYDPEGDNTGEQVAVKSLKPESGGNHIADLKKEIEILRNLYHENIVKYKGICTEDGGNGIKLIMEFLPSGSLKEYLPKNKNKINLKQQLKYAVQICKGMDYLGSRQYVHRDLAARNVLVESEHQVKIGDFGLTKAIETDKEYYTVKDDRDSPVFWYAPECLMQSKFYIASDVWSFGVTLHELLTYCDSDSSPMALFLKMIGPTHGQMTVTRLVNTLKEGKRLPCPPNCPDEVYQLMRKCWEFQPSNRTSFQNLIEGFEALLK
Sequence of TYK2 (P29597 whole entry, species assumed): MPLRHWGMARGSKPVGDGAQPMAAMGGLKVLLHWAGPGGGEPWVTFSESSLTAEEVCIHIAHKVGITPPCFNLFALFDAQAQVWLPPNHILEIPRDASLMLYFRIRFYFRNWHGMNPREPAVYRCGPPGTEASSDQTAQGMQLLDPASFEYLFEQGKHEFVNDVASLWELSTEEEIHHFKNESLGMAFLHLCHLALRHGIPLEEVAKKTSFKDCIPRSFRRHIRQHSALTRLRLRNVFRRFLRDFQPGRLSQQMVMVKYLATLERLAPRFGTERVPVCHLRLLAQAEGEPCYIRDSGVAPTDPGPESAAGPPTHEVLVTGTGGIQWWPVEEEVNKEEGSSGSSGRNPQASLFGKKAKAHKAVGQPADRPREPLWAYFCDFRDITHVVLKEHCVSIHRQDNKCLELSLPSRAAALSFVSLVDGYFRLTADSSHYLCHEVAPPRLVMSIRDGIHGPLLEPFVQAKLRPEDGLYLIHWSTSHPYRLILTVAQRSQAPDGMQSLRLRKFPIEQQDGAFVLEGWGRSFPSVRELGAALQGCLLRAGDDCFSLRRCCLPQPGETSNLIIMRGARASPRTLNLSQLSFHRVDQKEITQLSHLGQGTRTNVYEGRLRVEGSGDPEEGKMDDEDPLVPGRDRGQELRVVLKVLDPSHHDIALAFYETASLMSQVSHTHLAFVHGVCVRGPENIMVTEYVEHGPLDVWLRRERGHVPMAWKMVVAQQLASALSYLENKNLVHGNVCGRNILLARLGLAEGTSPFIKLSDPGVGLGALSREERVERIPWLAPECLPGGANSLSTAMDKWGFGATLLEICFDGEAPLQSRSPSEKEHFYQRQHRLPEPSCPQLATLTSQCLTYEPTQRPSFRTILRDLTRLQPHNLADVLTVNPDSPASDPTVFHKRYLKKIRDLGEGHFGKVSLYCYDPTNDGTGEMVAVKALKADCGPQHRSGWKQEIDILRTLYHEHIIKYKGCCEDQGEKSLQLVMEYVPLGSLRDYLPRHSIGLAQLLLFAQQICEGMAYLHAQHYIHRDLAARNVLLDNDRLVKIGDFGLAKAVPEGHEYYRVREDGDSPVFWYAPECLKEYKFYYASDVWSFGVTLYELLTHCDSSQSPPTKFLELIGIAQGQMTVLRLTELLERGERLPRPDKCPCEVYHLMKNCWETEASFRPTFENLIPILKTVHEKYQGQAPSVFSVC

On to `CC[C@H](Cn1ccc2cnc(Nc3cnn(CC(=O)N(C)S(C)(=O)=O)c3)nc21)C(C)C` [Example 4, (5)-2-(4-((7-(2-ethyl-3-methylbutyl)-7H-pyrrolo[2,3-d]pyrimidin-2-yl)amino)-1H-pyrazol-1-yl)-N-methyl-N-(methylsulfonyl) acetamide], for which the IC50 in experiment [1] was 100 to 1000 nM; against JAK1 it was < 100 nM; at JAK3, < 100 nM; on JAK2, < 100 nM; at TYK2, < 100 nM.
On to `CCC(CC)Cn1ccc2cnc(Nc3cnn(CC(=O)NC)c3)nc21` [Example 6, 2-(4-((7-(2-ethylbutyl)-7H-pyrrolo[2,3-d]pyrimidin-2-yl)amino)-1H-pyrazol-1-yl)-N-methylacetamide], for which the IC50 in experiment [1] is 100 to 1000 nM; against JAK1 it was < 100 nM; on JAK3, < 100 nM; on JAK2, < 100 nM; at TYK2 it was < 100 nM.
On to `CCC(CC)Cn1ccc2cnc(Nc3cnn(CC(=O)N(C)C)c3)nc21` [Example 5, 2-(4-((7-(2-ethylbutyl)-7H-pyrrolo[2,3-d]pyrimidin-2-yl)amino)-1H-pyrazol-1-yl)-N, N-dimethylacetamide], for which the IC50 is 1000 to 10000 nM in experiment [1]; < 100 nM on JAK1; < 100 nM on JAK3; < 100 nM on JAK2; < 100 nM at TYK2.
In the case of `CC[C@H](Cn1ccc2cnc(Nc3cnn(CC(=O)Nc4ccncc4)c3)nc21)C(C)C` [Example 2, (5)-2-(4-((7-(2-ethyl-3-methylbutyl)-7H-pyrrolo[2,3-d]pyrimidin-2-yl)amino)-1H-pyrazol-1-yl)-N-(pyridin-4-yl) acetamide], the IC50 was 1000 to 10000 nM in experiment [1]; < 100 nM against JAK1; < 100 nM on JAK3; < 100 nM on JAK2; < 100 nM at TYK2.
